Measured values taken from BindingDB's records for doi:10.1016/j.bmc.2008.10.052 (Universidade Federal De Santa Maria, 2008).
pIC50: −log10 of the molar value.

Biological target: Cruzipain (Trypanosoma cruzi, UniProt P25779)
Experiment: Inhibition of Trypanosoma cruzi C-terminal truncated cruzain expressed in DH5alpha Escherichia coli by well-microplate spectrophotometry

Chain of Cruzipain (P25779 whole entry, the tested form may be a part): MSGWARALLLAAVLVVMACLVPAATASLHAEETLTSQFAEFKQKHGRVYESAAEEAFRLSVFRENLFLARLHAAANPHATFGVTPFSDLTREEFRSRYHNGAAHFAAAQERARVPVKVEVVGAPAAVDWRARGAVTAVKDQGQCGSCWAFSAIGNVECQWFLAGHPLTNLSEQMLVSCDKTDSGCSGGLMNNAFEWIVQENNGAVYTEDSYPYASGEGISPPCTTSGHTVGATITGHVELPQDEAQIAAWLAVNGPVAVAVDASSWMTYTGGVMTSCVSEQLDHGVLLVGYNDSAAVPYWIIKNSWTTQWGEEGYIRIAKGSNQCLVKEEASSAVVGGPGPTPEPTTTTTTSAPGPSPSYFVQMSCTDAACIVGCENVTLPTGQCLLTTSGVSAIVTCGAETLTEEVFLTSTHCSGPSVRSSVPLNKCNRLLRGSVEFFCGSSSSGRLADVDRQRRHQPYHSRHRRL

Question: With Cc1cc(C(F)(F)F)nc(N=NCc2ccc(Cl)cc2)n1 [2-(N'-4-chloro-benzylidenehydrazino)-6-methyl-4-trifluoro-methyl-pyrimidine] as the compound, how does the pIC50 read?
Answer: The pIC50 was 4.00.

Question: How did the pIC50 turn out when COc1ccc(CN=Nc2nccc(C(F)(F)F)n2)cc1 [2-(N'-4-methoxy-benzylidenehydrazino)-4-trifluoromethyl-pyrimidine] was run?
Answer: The pIC50 was < 4.00.

Question: How did the pIC50 turn out when FC(F)(F)c1ccnc(N=NCc2ccccc2)n1 [2-(N'-Benzylidenehydrazino)-4-trifluoromethylpyrimidine] was run?
Answer: The pIC50 was < 3.82.

Question: How did the pIC50 turn out when COc1ccccc1CN=Nc1nc(C)cc(C(F)(F)F)n1 [2-(N'-2-Methoxy-benzylidenehydrazino)-6-methyl-4-trifluoromethyl-pyri-midine] was run?
Answer: Its pIC50 is < 3.82.

Question: Cc1cc(C(F)(F)F)nc(N=NCc2ccccc2C)n1 [2-(N'-2-Methyl-benzylidenehydrazino)-6-methyl-4-trifluoromethyl-pyrimidine] was tested. Which pIC50 did it give?
Answer: The pIC50 was < 4.00.

Question: O=[N+]([O-])c1ccc(CN=Nc2nccc(C(F)(F)F)n2)cc1 [2-(N'-4-Nitro-benzylidenehydrazino)-4-trifluoromethylpyrimidine] was tested. Which pIC50 did it give?
Answer: Its pIC50 is 4.00.

Question: With Cc1ccccc1CN=Nc1nccc(C(F)(F)F)n1 [2-(N'-2-Methyl-benzylidenehydrazino)-4-trifluoromethyl-pyrimidine] as the compound, how does the pIC50 read?
Answer: Its pIC50 is < 4.00.

Question: With Cc1ccc(CN=Nc2nccc(C(F)(F)F)n2)cc1 [2-(N'-4-Methyl-benzylidenehydrazino)-4-trifluoromethyl-pyrimidine] as the compound, how does the pIC50 read?
Answer: The pIC50 was < 4.00.
